# Experiments:
# [1] = tested on: ENR+CD organoids (ISC to Paneth cell differentiation); assay: Primary screen: CCh-stimulated lysozyme secretion LYZ.S, 2.5-D 384-well ENR+CD organoid differentiation; assay type: cell-based, mouse; settings: primary screen
# Excerpt: (§1) High-throughput screening.
# [2] = tested on: ENR+CD organoids (ISC to Paneth cell differentiation); assay: Primary screen: basal (non-stimulated) lysozyme secretion LYZ.NS, 2.5-D 384-well ENR+CD organoid differentiation; assay type: cell-based, mouse; settings: primary screen; for Z.LYZ.NS: standard z score
# Excerpt: as §1
# ENR+CD organoids = assay: Primary screen: ATP (CellTiter-Glo 3D, CTG) cell number/viability, 2.5-D 384-well ENR+CD organoids; settings: primary screen;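 further: compounds given at plating and again on day 3 over a 6-day differentiation from ENR+CV stem-cell-enriched precursors, ATP measured on day 6, plate median as control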
# [3] = dose 0.08 uM, FC vs plate median
# [4] = dose 0.40 uM, FC vs plate median
# [5] = dose 2.00 uM, FC vs plate median
# [6] = dose 10.00 uM, FC vs plate median
# [7] = 1st dose row of the treatment (0.08 uM by row order; dose not reprinted)
# [8] = 2nd dose row of the treatment (0.40 uM by row order; dose not reprinted)
# [9] = 3rd dose row of the treatment (2.00 uM by row order; dose not reprinted)
# [10] = 4th dose row of the treatment (10.00 uM by row order; dose not reprinted)
smiles,measurement,setting,value
N#Cc1ccc(C(c2ccc(C#N)cc2)n2cncn2)cc1 [Letrozole],Dose.FC.LYZ.S (log2 fold change),[1]; dose 0.08 uM,0.040
same,Dose.FC.LYZ.S (log2 fold change),[1]; dose 0.40 uM,0.150
same,Dose.FC.LYZ.S (log2 fold change),[1]; dose 2.00 uM,0.006
same,Dose.FC.LYZ.S (log2 fold change),[1]; dose 10.00 uM,0.006
same,Dose.FC.LYZ.NS (log2 fold change),[2]; dose 0.08 uM,0.065
same,Z.LYZ.NS (standard z score),[2]; dose 0.08 uM,0.570
same,Dose.FC.LYZ.NS (log2 fold change),[2]; dose 0.40 uM,0.128
same,Z.LYZ.NS (standard z score),[2]; dose 0.40 uM,1.115
same,Dose.FC.LYZ.NS (log2 fold change),[2]; dose 2.00 uM,0.009
same,Z.LYZ.NS (standard z score),[2]; dose 2.00 uM,0.082
same,Dose.FC.LYZ.NS (log2 fold change),[2]; dose 10.00 uM,−0.008
same,Z.LYZ.NS (standard z score),[2]; dose 10.00 uM,−0.068
same,Dose.FC.CTG (log2 fold change),ENR+CD organoids; dose 0.08 uM,−0.013
same,Dose.FC.CTG (log2 fold change),ENR+CD organoids; dose 0.40 uM,0.101
same,Dose.FC.CTG (log2 fold change),ENR+CD organoids; dose 2.00 uM,0.099
same,Dose.FC.CTG (log2 fold change),ENR+CD organoids; dose 10.00 uM,0.171
COc1ccc2cc([C@H](C)C(=O)O)ccc2c1 [Naproxen],Dose.FC.LYZ.S,[1]; [3],0.067 log2 fold change
same,Dose.FC.LYZ.S,[1]; [4],0.057 log2 fold change
same,Dose.FC.LYZ.S,[1]; [5],−0.215 log2 fold change
same,Dose.FC.LYZ.S,[1]; [6],−0.215 log2 fold change
same,Z.LYZ.NS,[2]; dose 0.08 uM,1.226
same,Z.LYZ.NS,[2]; dose 0.40 uM,0.930
same,Z.LYZ.NS,[2]; dose 2.00 uM,−0.698
same,Z.LYZ.NS,[2]; dose 10.00 uM,−1.064
same,Dose.FC.LYZ.NS,[2]; [3],0.141 log2 fold change
same,Dose.FC.LYZ.NS,[2]; [4],0.107 log2 fold change
same,Dose.FC.LYZ.NS,[2]; [5],−0.080 log2 fold change
same,Dose.FC.LYZ.NS,[2]; [6],−0.122 log2 fold change
same,Dose.FC.CTG,ENR+CD organoids; [3],−0.098 log2 fold change
same,Dose.FC.CTG,ENR+CD organoids; [4],−0.068 log2 fold change
same,Dose.FC.CTG,ENR+CD organoids; [5],−0.588 log2 fold change
same,Dose.FC.CTG,ENR+CD organoids; [6],−1.282 log2 fold change
N#Cc1c(O)c2c(-c3ccc(-c4ccccc4O)cc3)csc2[nH]c1=O [A-769662],SSMD.LYZ.S_Rep (strictly standardized mean difference),[1]; [7],0.365
same,Z.LYZ.S (standard z score),[1]; [7],0.426
same,SSMD.LYZ.S_Rep (strictly standardized mean difference),[1]; [8],0.472
same,Z.LYZ.S (standard z score),[1]; [8],0.460
same,SSMD.LYZ.S_Rep (strictly standardized mean difference),[1]; [9],0.488
same,Z.LYZ.S (standard z score),[1]; [9],1.191
same,SSMD.LYZ.S_Rep (strictly standardized mean difference),[1]; [10],0.119
same,Z.LYZ.S (standard z score),[1]; [10],0.121
same,Dose.FC.LYZ.S,[1]; dose 0.08 uM,0.066 log2 fold change
same,Dose.FC.LYZ.S,[1]; dose 0.40 uM,0.071 log2 fold change
same,Dose.FC.LYZ.S,[1]; dose 2.00 uM,0.184 log2 fold change
same,Dose.FC.LYZ.S,[1]; dose 10.00 uM,0.019 log2 fold change
same,SSMD.LYZ.NS_Rep (strictly standardized mean difference),[2]; [7],0.286
same,SSMD.LYZ.NS_Rep (strictly standardized mean difference),[2]; [8],0.498
same,SSMD.LYZ.NS_Rep (strictly standardized mean difference),[2]; [9],0.554
same,SSMD.LYZ.NS_Rep (strictly standardized mean difference),[2]; [10],0.068
same,Dose.FC.LYZ.NS,[2]; dose 0.08 uM,0.045 log2 fold change
same,Z.LYZ.NS (standard z score),[2]; dose 0.08 uM,0.394
same,Dose.FC.LYZ.NS,[2]; dose 0.40 uM,0.069 log2 fold change
same,Z.LYZ.NS (standard z score),[2]; dose 0.40 uM,0.599
same,Dose.FC.LYZ.NS,[2]; dose 2.00 uM,0.054 log2 fold change
same,Z.LYZ.NS (standard z score),[2]; dose 2.00 uM,0.473
same,Dose.FC.LYZ.NS,[2]; dose 10.00 uM,0.009 log2 fold change
same,Z.LYZ.NS (standard z score),[2]; dose 10.00 uM,0.075
same,SSMD.CTG.Rep (strictly standardized mean difference),ENR+CD organoids; [7],−0.255
same,SSMD.CTG.Rep (strictly standardized mean difference),ENR+CD organoids; [8],0.019
same,SSMD.CTG.Rep (strictly standardized mean difference),ENR+CD organoids; [9],−0.312
same,SSMD.CTG.Rep (strictly standardized mean difference),ENR+CD organoids; [10],−0.056
same,Dose.FC.CTG,ENR+CD organoids; dose 0.08 uM,−0.074 log2 fold change
same,Z.CTG (standard z score),ENR+CD organoids; dose 0.08 uM,−0.177
same,Dose.FC.CTG,ENR+CD organoids; dose 0.40 uM,0.007 log2 fold change
same,Z.CTG (standard z score),ENR+CD organoids; dose 0.40 uM,0.016
same,Dose.FC.CTG,ENR+CD organoids; dose 2.00 uM,−0.127 log2 fold change
same,Z.CTG (standard z score),ENR+CD organoids; dose 2.00 uM,−0.304
same,Dose.FC.CTG,ENR+CD organoids; dose 10.00 uM,−0.015 log2 fold change
same,Z.CTG (standard z score),ENR+CD organoids; dose 10.00 uM,−0.036
NC(=O)c1cccc(-c2cccc(OC(=O)NC3CCCCC3)c2)c1 [URB597],Dose.FC.LYZ.S,[1]; dose 0.08 uM,0.141 log2 fold change
same,Dose.FC.LYZ.S,[1]; dose 0.40 uM,0.021 log2 fold change
same,Dose.FC.LYZ.S,[1]; dose 2.00 uM,0.017 log2 fold change
same,Dose.FC.LYZ.S,[1]; dose 10.00 uM,−0.044 log2 fold change
same,Dose.FC.LYZ.NS,[2]; dose 0.08 uM,0.087 log2 fold change
same,Z.LYZ.NS (standard z score),[2]; dose 0.08 uM,0.754
same,Dose.FC.LYZ.NS,[2]; dose 0.40 uM,−0.001 log2 fold change
same,Z.LYZ.NS (standard z score),[2]; dose 0.40 uM,−0.007
same,Dose.FC.LYZ.NS,[2]; dose 2.00 uM,0.035 log2 fold change
same,Z.LYZ.NS (standard z score),[2]; dose 2.00 uM,0.307
same,Dose.FC.LYZ.NS,[2]; dose 10.00 uM,−0.014 log2 fold change
same,Z.LYZ.NS (standard z score),[2]; dose 10.00 uM,−0.123
same,Dose.FC.CTG,ENR+CD organoids; dose 0.08 uM,0.314 log2 fold change
same,Dose.FC.CTG,ENR+CD organoids; dose 0.40 uM,0.065 log2 fold change
same,Dose.FC.CTG,ENR+CD organoids; dose 2.00 uM,0.137 log2 fold change
same,Dose.FC.CTG,ENR+CD organoids; dose 10.00 uM,−0.021 log2 fold change

# — patent US20220323406A1, “METHODS AND COMPOSITIONS FOR DIFFERENTIATING STEM CELLS” (Massachusetts Institute of Technology, priority 2019, published 2022)
